The record followed here is ChEMBL document CHEMBL1149800, “Synthesis, physicochemical properties and antimicrobial evaluation of new (E)-chalcones” (Eur J Med Chem, 2008).

≈ marks a conversion by molar mass, not a printed value.

In one assay the test system is Staphylococcus aureus. Description: Antibacterial activity against Staphylococcus aureus 209P FDA after 18 hrs by hole-plate agar diffusion method. The format is functional. In general terms: A growth-free zone around the sample is the usual read-out of agar diffusion tests.
Another assay has as its system Enterococcus faecalis. Briefly: Antibacterial activity against Enterococcus faecalis after 18 hrs by hole-plate agar diffusion method. The format is functional.
The subject of another assay is Bacillus subtilis. Briefly: Antibacterial activity against Bacillus subtilis ATCC 1633 after 18 hrs by hole-plate agar diffusion method. The class given is functional. To be noted: ATCC 1633, 18 h.
The next assay relates to Nannizzia gypsea. Briefly: Antifungal activity against Microsporum gypseum after 3 to 7 days. The format is functional.
The next assay has as its system Escherichia coli. Briefly: Antibacterial activity against Escherichia coli PZH 026 B6 after 18 hrs by hole-plate agar diffusion method. The class given is functional.
A further assay has as its system Candida albicans. Briefly: Antifungal activity against Candida albicans PCM 1409 PZH after 3 to 7 days. The format is functional, organism-based.

For the compound `CC1CCN(CCCCCCOc2ccc(/C=C/C(=O)c3ccccc3)cc2)CC1`, the MIC – broadly, the lowest concentration that inhibits growth of the organism – against Staphylococcus aureus turned out to be 25 µM (≈ 10.1 µg/mL); against Enterococcus faecalis, 25 µM (≈ 10.1 µg/mL); with Bacillus subtilis, 19 µM (≈ 7.71 µg/mL); against Nannizzia gypsea, 123 µM (≈ 49.9 µg/mL).

In turn, `O=C(/C=C/c1ccc(OCCCCN2CCOCC2)cc1)c1ccccc1` yielded a minimum inhibitory concentration (MIC) against Nannizzia gypsea of 274 µM (≈ 100 µg/mL).

Turning to `O=C(/C=C/c1ccc(OCCCCCN2CCOCC2)cc1)c1ccccc1`, the MIC against Nannizzia gypsea came to 264 µM (≈ 100 µg/mL).

For the compound `O=C(/C=C/c1ccc(OCCCCCCN2CCOCC2)cc1)c1ccccc1`, the minimum inhibitory concentration (MIC) with Nannizzia gypsea amounted to 254 µM (≈ 100 µg/mL).

As to `O=C(/C=C/c1ccc(SCCCCCN2CCOCC2)cc1)c1ccccc1`, the MIC in the assay with Nannizzia gypsea turned out to be 189 µM (≈ 74.8 µg/mL).

`O=C(/C=C/c1ccc(SCCCCCCN2CCOCC2)cc1)c1ccccc1` displayed an MIC in the assay on Nannizzia gypsea of under 244 µM.

In the assay on Nannizzia gypsea, `O=C(/C=C/c1ccc(OCCCCCBr)cc1)c1ccccc1` came in with an MIC of 268 µM (≈ 100 µg/mL).

For `O=C(/C=C/c1ccc(OCCCCN2CCCCC2)cc1)c1ccccc1`, the minimal inhibitory concentration (MIC) in the assay on Staphylococcus aureus, in the assay with Enterococcus faecalis and against Bacillus subtilis was 275 µM (≈ 100 µg/mL) in each case.

Take `O=C(/C=C/c1ccc(SCCCCCN2CCCCC2)cc1)c1ccccc1`: the MIC against Staphylococcus aureus is 254 µM (≈ 100 µg/mL); against Enterococcus faecalis, 254 µM (≈ 100 µg/mL); against Bacillus subtilis it was 254 µM (≈ 100 µg/mL); in the assay on Escherichia coli, 254 µM (≈ 100 µg/mL); against Candida albicans, 127 µM (≈ 50 µg/mL); with Nannizzia gypsea, 254 µM (≈ 100 µg/mL).

`O=C(/C=C/c1ccc(OCCCCCN2CCCCC2)cc1)c1ccccc1`: the MIC with Staphylococcus aureus, against Enterococcus faecalis and against Bacillus subtilis was 265 µM (≈ 100 µg/mL) throughout.

For `CC1CCN(CCCCOc2ccc(/C=C/C(=O)c3ccccc3)cc2)CC1`, the MIC against Staphylococcus aureus amounted to 133 µM (≈ 50.2 µg/mL); in the assay on Enterococcus faecalis, 265 µM (≈ 100 µg/mL); against Bacillus subtilis, 265 µM (≈ 100 µg/mL); in the assay on Nannizzia gypsea, 265 µM (≈ 100 µg/mL).

Turning to `CC1CCN(CCCCCOc2ccc(/C=C/C(=O)c3ccccc3)cc2)CC1`, the minimum inhibitory concentration (MIC) with Staphylococcus aureus was found to be 19 µM (≈ 7.44 µg/mL); with Enterococcus faecalis, 26 µM (≈ 10.2 µg/mL); against Bacillus subtilis it was 128 µM (≈ 50.1 µg/mL); against Nannizzia gypsea, 256 µM (≈ 100 µg/mL).

For the compound `O=C(/C=C/c1ccc(OCCCCCCN2CCCCC2)cc1)c1ccccc1`, the MIC was 256 µM (≈ 100 µg/mL) against Staphylococcus aureus, 256 µM (≈ 100 µg/mL) with Enterococcus faecalis, 256 µM (≈ 100 µg/mL) against Bacillus subtilis and under 256 µM against Nannizzia gypsea.

On to `O=C(/C=C/c1ccc(OCCCCCCCCCCN2CCCCC2)cc1)c1ccccc1`, for which the minimum inhibitory concentration (MIC) was determined as 21 µM (≈ 9.4 µg/mL) in the assay with Staphylococcus aureus, 209 µM (≈ 93.6 µg/mL) against Enterococcus faecalis and 209 µM (≈ 93.6 µg/mL) against Bacillus subtilis.

For `O=C(/C=C/c1ccc(SCCCCBr)cc1)c1ccccc1`, the minimal inhibitory concentration (MIC) in the assay on Staphylococcus aureus turned out to be 267 µM (≈ 100 µg/mL).

For `O=C(/C=C/c1ccc(SCCCCCCN2CCCCC2)cc1)c1ccccc1`, the MIC is 25 µM (≈ 10.2 µg/mL) against Staphylococcus aureus; 25 µM (≈ 10.2 µg/mL) against Enterococcus faecalis; 25 µM (≈ 10.2 µg/mL) with Bacillus subtilis; under 246 µM in the assay with Candida albicans; under 246 µM in the assay with Nannizzia gypsea.

As for `O=C(/C=C/c1ccc(SCCCCCCCCCCN2CCCCC2)cc1)c1ccccc1`, the minimal inhibitory concentration (MIC) with Staphylococcus aureus and against Nannizzia gypsea was 216 µM (≈ 100 µg/mL) each time.

For the compound `O=C(/C=C/c1ccc(SCCCCCBr)cc1)c1ccccc1`, in the assay on Nannizzia gypsea, the minimum inhibitory concentration (MIC) amounted to 193 µM (≈ 75.1 µg/mL).

With `O=C(/C=C/c1ccc(SCCCCN2CCCCC2)cc1)c1ccccc1`, the minimal inhibitory concentration (MIC) in the assay on Staphylococcus aureus stood at 26 µM (≈ 9.87 µg/mL); against Enterococcus faecalis, 264 µM (≈ 100 µg/mL); in the assay with Bacillus subtilis it was 26 µM (≈ 9.87 µg/mL); in the assay on Nannizzia gypsea, 264 µM (≈ 100 µg/mL).

On to `CC1CCN(CCCCSc2ccc(/C=C/C(=O)c3ccccc3)cc2)CC1`, for which the MIC worked out at 25 µM (≈ 9.84 µg/mL) against Staphylococcus aureus, 254 µM (≈ 100 µg/mL) in the assay on Enterococcus faecalis, 254 µM (≈ 100 µg/mL) in the assay on Bacillus subtilis and 191 µM (≈ 75.2 µg/mL) against Nannizzia gypsea.

Regarding `CC1CCN(CCCCCSc2ccc(/C=C/C(=O)c3ccccc3)cc2)CC1`, the MIC came to 18 µM (≈ 7.34 µg/mL) in the assay with Staphylococcus aureus; 25 µM (≈ 10.2 µg/mL) in the assay with Enterococcus faecalis; 25 µM (≈ 10.2 µg/mL) against Bacillus subtilis; 184 µM (≈ 75 µg/mL) against Candida albicans; 184 µM (≈ 75 µg/mL) in the assay on Nannizzia gypsea.

In the case of `CC1CCN(CCCCCCSc2ccc(/C=C/C(=O)c3ccccc3)cc2)CC1`, the MIC was 24 µM (≈ 10.1 µg/mL) against Staphylococcus aureus; 24 µM (≈ 10.1 µg/mL) against Enterococcus faecalis; 18 µM (≈ 7.59 µg/mL) in the assay on Bacillus subtilis; under 237 µM against Candida albicans; under 237 µM with Nannizzia gypsea.

For the compound `O=C(/C=C/c1ccc(SCCCCCCN2CCNCC2)cc1)c1ccccc1`, the minimal inhibitory concentration (MIC) against Staphylococcus aureus and with Enterococcus faecalis was 245 µM (≈ 100 µg/mL) each time.

For `O=C(/C=C/c1ccc(SCCCCN2CCNCC2)cc1)c1ccccc1`, the MIC in the assay on Staphylococcus aureus, in the assay with Enterococcus faecalis and with Bacillus subtilis was 263 µM (≈ 100 µg/mL) in each case.

As to `C[C@@H]1[C@H](O)[C@@H](C)/C=C/C=C/C=C/C=C/C=C/C=C/C=C/[C@H](O[C@@H]2O[C@H](C)[C@@H](O)[C@H](N)[C@@H]2O)C[C@@H]2O[C@](O)(C[C@@H](O)C[C@@H](O)[C@H](O)CC[C@@H](O)C[C@@H](O)CC(=O)O[C@H]1C)C[C@H](O)[C@H]2C(=O)O` [AMPHOTERICIN B], the MIC turned out to be 0.5 µM (≈ 0.462 µg/mL) with Candida albicans and 11 µM (≈ 10.2 µg/mL) against Nannizzia gypsea.

Consider `O=C(N[C@H](CO)[C@H](O)c1ccc([N+](=O)[O-])cc1)C(Cl)Cl` [CHLORAMPHENICOL], for which the MIC in the assay on Staphylococcus aureus, in the assay with Enterococcus faecalis, against Bacillus subtilis and in the assay on Escherichia coli was 15 µM (≈ 4.85 µg/mL) each time.
